Experiments:
[1] = system: calpain activity in rat glial cells (C6); assay: In situ calpain activity in rat glial cells C6 stimulated by maitotoxin; assay type: cell-based; details: read-out: Inhibition human calpain I, in situ (C6) [IC50 (nM)]; n = 3; maitotoxin 1 nM; 1 h 30 min
Experimental: Human neuroblastomas SHSY5Y and rat glial cells C6 are seeded at a rate of 50,000 and 25,000 cells respectively per well on 96-well plates in DMEM 10% FBS. The next day, the cells which have adhered are washed 3 times in DMEM medium without serum and 40 mM Hepes. 100 microlitres of product B is placed in the wells. After incubation for 1 hour at 37° C. under an atmosphere of 5% CO2, 10 μl containing the fluorescent substrate of calpain (Suc-Leu-Tyr-AMC) and maitotoxin (Sigma, ref: M-9159), in order to obtain a final concentration in the well of 100 μM and of 1 nM respectively are added.
In order to determine the total activity of the cell enzyme, wells containing no product are added to the plate (100 μL DMSO 100th plus 10 μl of MTX and substrate). The background noise is determined by adding control wells with no MTX. Each concentration of the products (0.3 μM to 200 μM for the SHSY5Y's and 0.01 μM to 100 μM for the C6's) is tested in triplicate. The plates are shaken, the fluorescence is read at 380/460 nm using the Victor at T zero. Incubation takes place for four hours for the SHSY5Y and 1 hour 30 minutes for the C6 cells at 30° C. in darkness.

[2] = system: rat glial cells C6; assay: Protection from necrosis induced by maitotoxin, C6 (wst-1 viability); assay type: cell-based; details: single product at 50 μM, n = 3 for Example 2, else n = 1
Experimental: Human neuroblastomas SHSY5Y and rat glial cells C6 are seeded at 25 000 cells per well in 96-well plates in DMEM 10% FBS for 24 hours. The L6 rat myoblasts are seeded at 1000 cells per well in DMEM 10% FBS on 96-well microplates coated beforehand with gelatin 0.5% PBS. After culture for 3 days the medium is removed and replaced with a differentiation medium (DMEM+10 μg/ml of insulin+100 μg/ml of transferrin). 50 μl of product A plus 50 μl of solvent or 50 μl of product B are placed in the wells. After incubation for 1 hour at 37° C. under an atmosphere of 5% CO2, 10 μl of maitotoxin is added in order to obtain a final concentration of 0.1 nM to 1 nM (according to the cell type). After incubation for 3 hours at 37° C. under an atmosphere of 5% CO2, the cell viability is determined by adding 10 μl of tetrazolium salts (wst-1, Roche, ref: 1644807). The tetrazolium salts are cleaved into formazan molecules by mitochondrial dehydrogenases. The quantity of formazan formed is directly correlated to the number of metabolically active cells in the culture. Measurement of the absorbance of the formazan is carried out using a multiwell photometer at a wavelength of 420 nm against a reference wavelength of 620 nm.
The theoretical effect was obtained by multiplying the percentage of dead cells in the presence of product A by the percentage of dead cells in the presence of product B (Table 3). The percentage protection against cell death induced by MTX being the percentage of cells kept alive in the presence of the product or products.
In the light of the previous results, the combination of Example 1 with product A and product B at a rate of 100 μM of each of the products is carried out on human neuroblastomas (SHSY5Y; (Table 5A) and on glial cells with 25 μM of product A and 50 μM of product B (C6; Table 5B) on a larger number of cases.

For `CC(C)C[C@@H](C=O)NC(=O)[C@H](CC(C)C)NC(=O)OCc1ccccc1` [EXAMPLE 1 B, benzyl (1S)-1-({[(1S)-1-formyl-3-methylbutyl]amino}carbonyl)-3-methylbutylcarbamate], the IC50 [1] was 1750 ± 340 nM, the “Protection from necrosis induced by MTX on C6” value (“Protection” for short) [2] was 9.63% and the “Protection” value ([2]; listed as EXAMPLE 6 B) was 4.91%. For the same molecule, the “Protection” value ([2]; listed as Z-Leu-Leu-H) was “not active”.

Reference: patent US20070265208A1, “Association of calpain inhibitors and reactive oxygen species trapping agents” (priority 2000, published 2007)
